Test results: ChEMBL document CHEMBL3091346, “Structure-activity relationship studies of thalidomide analogs with a taxol-like mode of action” (Bioorg Med Chem Lett, 2013)
Active and inactive are the calls of the source. The rule behind the calls is not given here.

Legend:
Tubulin (Sus scrofa) [1] = molecular target: T1, Tubulin (Sus scrofa) (UniProt P02554+P02550); assay: Induction of purified porcine brain tubulin polymerization at 50 uM by spectrophotometric analysis
MDA-MB-231 = assay: Antiproliferative activity against human MDA-MB-231 cells assessed as growth inhibition by MTS assay; format: functional, cell-based
PC-3 [2] = assay: Antiproliferative activity against human PC3 cells assessed as growth inhibition by MTS assay; format: functional, cell-based
DU-145 = assay: Antiproliferative activity against human DU145 cells assessed as growth inhibition by MTS assay; format: functional, cell-based
PC-3 [3] = assay: Antiproliferative activity against human PC3 cells assessed as growth inhibition at 30 uM by MTS assay; format: functional; details: read-out: GI
Tubulin (Sus scrofa) [4] = molecular target: T1, Tubulin (Sus scrofa); assay: Induction of purified porcine brain tubulin polymerization assessed as microtubule-stabilization at 50 uM by spectrophotometric analysis

T1 sequence (P02550 whole entry, looked up): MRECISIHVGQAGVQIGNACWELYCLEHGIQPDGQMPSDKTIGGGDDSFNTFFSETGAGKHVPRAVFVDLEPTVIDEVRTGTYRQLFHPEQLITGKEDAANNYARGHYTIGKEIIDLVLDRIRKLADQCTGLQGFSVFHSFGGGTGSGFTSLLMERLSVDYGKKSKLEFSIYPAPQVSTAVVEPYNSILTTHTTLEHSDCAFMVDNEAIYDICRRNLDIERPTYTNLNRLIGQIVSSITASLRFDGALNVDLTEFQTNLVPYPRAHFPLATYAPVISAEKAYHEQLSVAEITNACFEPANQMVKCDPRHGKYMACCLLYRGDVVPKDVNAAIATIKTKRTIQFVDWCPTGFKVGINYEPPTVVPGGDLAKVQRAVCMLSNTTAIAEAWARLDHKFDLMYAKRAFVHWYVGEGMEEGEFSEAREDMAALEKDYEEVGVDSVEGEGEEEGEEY
T1 sequence (P02554 whole entry, looked up): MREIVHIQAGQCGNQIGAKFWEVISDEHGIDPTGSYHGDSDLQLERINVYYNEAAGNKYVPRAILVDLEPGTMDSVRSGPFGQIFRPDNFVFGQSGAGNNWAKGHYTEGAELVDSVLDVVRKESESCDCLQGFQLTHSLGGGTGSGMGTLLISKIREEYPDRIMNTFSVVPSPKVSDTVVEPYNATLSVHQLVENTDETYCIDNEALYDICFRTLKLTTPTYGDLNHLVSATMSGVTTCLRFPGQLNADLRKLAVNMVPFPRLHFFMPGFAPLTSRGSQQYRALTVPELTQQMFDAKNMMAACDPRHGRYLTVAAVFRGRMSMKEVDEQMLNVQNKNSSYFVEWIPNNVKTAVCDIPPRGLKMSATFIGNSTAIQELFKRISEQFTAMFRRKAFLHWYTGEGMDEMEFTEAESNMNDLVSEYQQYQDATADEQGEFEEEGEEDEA

Q: What does the source list for CC(C)c1cccc(C(C)C)c1N1C(=O)c2ccc(N)cc2C1=O?
A: Activity (Tubulin (Sus scrofa) [1]): Active; IC50 (MDA-MB-231): 7.24 µM; IC50 (PC-3 [2]): 2.07 µM; IC50 (DU-145): 3.94 µM

Q: Which inhibition of growth at 30 µM (PC-3 [3]) does the source give for Cc1ccc(N2C(=O)c3ccccc3C2=O)cc1C here?
A: < 10%

Q: Which results are given for Cc1ccc2c(c1)C(=O)N(c1c(C(C)C)cccc1C(C)C)C2=O?
A: IC50 (MDA-MB-231): 4.85 µM; IC50 (PC-3 [2]): 8.02 µM; IC50 (DU-145): 6.62 µM

Q: How did the IC50 (MDA-MB-231) turn out when CC(C)c1cccc(C(C)C)c1N1C(=O)c2cccc([N+](=O)[O-])c2C1=O was run?
A: 37.7 µM

Q: What about the IC50 (PC-3 [2]) of the same compound?
A: 38.3 µM

Q: And the IC50 (DU-145)?
A: > 50 µM

Q: For O=C1c2ccccc2C(=O)N1c1c(Br)cccc1Br, which inhibition of growth at 30 µM (PC-3 [3]) is on record?
A: 21.9%

Q: How did the IC50 (MDA-MB-231) turn out when Cc1cccc(C)c1N1C(=O)c2ccc(O)cc2C1=O was run?
A: > 50 µM

Q: What about the IC50 (PC-3 [2]) of the same compound?
A: > 50 µM

Q: And the Activity (Tubulin (Sus scrofa) [4])?
A: inactive

Q: And the IC50 (DU-145)?
A: > 50 µM

Q: How did the inhibition of growth at 30 µM (PC-3 [3]) turn out when O=C1c2ccccc2C(=O)N1c1ccc(Cl)cc1Cl was run?
A: < 10%

Q: With CC(C)c1cccc(C(C)C)c1N1C(=O)c2ccccc2C1=O as the compound, how does the IC50 (MDA-MB-231) read?
A: 4.12 µM

Q: And the IC50 (PC-3 [2])?
A: 4.01 µM

Q: And the IC50 (DU-145)?
A: 7.12 µM

Q: Which results are given for CC(C)c1cccc(C(C)C)c1N1C(=O)c2ccc([N+](=O)[O-])cc2C1=O?
A: IC50 (MDA-MB-231): > 50 µM; IC50 (DU-145): 15 µM

Q: For O=C1c2ccccc2C(=O)N1c1ccc2ccccc2c1, which inhibition of growth at 30 µM (PC-3 [3]) is on record?
A: 16%

Q: For O=C1c2ccccc2C(=O)N1c1cc(Cl)ccc1Cl, which inhibition of growth at 30 µM (PC-3 [3]) is on record?
A: < 10%

Q: Which inhibition of growth at 30 µM (PC-3 [3]) does the source give for COc1ccc(N2C(=O)c3ccccc3C2=O)cc1OC here?
A: 10.2%

Q: Which inhibition of growth at 30 µM (PC-3 [3]) does the source give for Cc1cccc(C)c1N1C(=O)c2ccccc2C1=O here?
A: < 10%

Q: Which IC50 (MDA-MB-231) does the source give for COC(=O)c1ccc2c(c1)C(=O)N(c1c(C(C)C)cccc1C(C)C)C2=O here?
A: 6.87 µM

Q: What about the IC50 (PC-3 [2]) of the same compound?
A: 21.8 µM

Q: And the IC50 (DU-145)?
A: 24.6 µM

Q: How did the Activity (Tubulin (Sus scrofa) [1]) turn out when CC(C)c1cccc(C(C)C)c1N1C(=O)c2cccc(O)c2C1=O was run?
A: Active

Q: And the IC50 (MDA-MB-231)?
A: 15 µM

Q: And the IC50 (PC-3 [2])?
A: 45.2 µM

Q: And the IC50 (DU-145)?
A: 45.6 µM

Q: With O=C1c2ccccc2C(=O)N1c1ccc(Cl)c(Cl)c1 as the compound, how does the inhibition of growth at 30 µM (PC-3 [3]) read?
A: < 10%

Q: Which inhibition of growth at 30 µM (PC-3 [3]) does the source give for O=C1c2ccccc2C(=O)N1c1c(F)cccc1F here?
A: < 10%

Q: With CC(C)c1cccc(C(C)C)c1N1C(=O)c2ccc(Cl)cc2C1=O as the compound, how does the IC50 (MDA-MB-231) read?
A: 10.6 µM

Q: What about the IC50 (PC-3 [2]) of the same compound?
A: 5.52 µM

Q: What about the IC50 (DU-145) of the same compound?
A: 14.1 µM

Q: For CCc1cccc(CC)c1N1C(=O)c2ccc(O)cc2C1=O, which IC50 (MDA-MB-231) is on record?
A: 29.2 µM

Q: What about the IC50 (PC-3 [2]) of the same compound?
A: > 50 µM

Q: And the Activity (Tubulin (Sus scrofa) [4])?
A: Active

Q: What about the IC50 (DU-145) of the same compound?
A: 45.9 µM

Q: How did the inhibition of growth at 30 µM (PC-3 [3]) turn out when O=C1c2ccccc2C(=O)N1c1cccc2ccccc12 was run?
A: < 10%

Q: Which results are given for CC(C)c1cccc(C(C)C)c1N1C(=O)c2ccc(C(=O)O)cc2C1=O?
A: IC50 (MDA-MB-231): 5.56 µM; IC50 (PC-3 [2]): 6.4 µM; IC50 (DU-145): 9.16 µM

Q: With O=C1c2ccccc2C(=O)N1c1ccc([N+](=O)[O-])c(C(F)(F)F)c1 as the compound, how does the inhibition of growth at 30 µM (PC-3 [3]) read?
A: < 10%

Q: O=C1c2ccccc2C(=O)N1c1cc(Cl)cc(Cl)c1 was tested. Which inhibition of growth at 30 µM (PC-3 [3]) did it give?
A: < 10%

Q: How did the IC50 (MDA-MB-231) turn out when CC(C)c1cccc(C(C)C)c1N1C(=O)c2cccc(N)c2C1=O was run?
A: 7.24 µM

Q: And the IC50 (PC-3 [2])?
A: 6.26 µM

Q: And the IC50 (DU-145)?
A: 8.14 µM

Q: Which inhibition of growth at 30 µM (PC-3 [3]) does the source give for O=C1c2ccccc2C(=O)N1c1c(Cl)cccc1Cl here?
A: < 10%

Q: Which Activity (Tubulin (Sus scrofa) [1]) does the source give for CC(C)c1cccc(C(C)C)c1N1C(=O)c2ccc(O)cc2C1=O here?
A: Active

Q: And the IC50 (MDA-MB-231)?
A: 5.35 µM

Q: And the IC50 (PC-3 [2])?
A: 8.3 µM

Q: And the inhibition of growth at 30 µM (PC-3 [3])?
A: > 90%

Q: And the Activity (Tubulin (Sus scrofa) [4])?
A: Active

Q: And the IC50 (DU-145)?
A: 5.74 µM
